We go through 47 substances from PMC9778238, “How Discoloration of Porcine Cruor Hydrolysate Allowed the Identification of New Antifungal Peptides” (Foods, 2022).

Ends that are not written are not given here. Some results are limits rather than exact numbers.

The first data set relates to R. mucilaginosa.
Assay: not given
The data set is classed as cell-based, Rhodotorula mucilaginosa. The settings on record: 48 h. The procedure: (§1) The peptide synthesis was performed by Laboratoire Innodal (Lévis, QC, Canada). Fourteen peptides were synthesized by standard solid-phase peptide synthesis (SPPS) on an automated peptide synthesizer. Solubility of peptides was first tested on saline water with 0.85% NaCl. […] Each peptide was solubilized in a small volume of dimethylsulfoxide (DMSO), and water was subsequently added until a 10% (v/v) DMSO concentration was reached. The stock solution of each peptide was at a concentration of 2.5 mM. The pH of the final solution was below the isoelectric point of each peptide. […] Antifungal assays on synthesized peptides were realized using methods described below.
(§2) The antibacterial activity was tested against two indicator bacteria including Escherichia coli and Listeria ivanovii (Table 1). These two strains are Gram-negative and Gram-positive, respectively and are commonly sensitive strains. They were subcultured in Tryptic Soy Broth (TSB) two times for 18 h, at 37 °C for E. coli and 30 °C for L. ivanovii. The antifungal activity was evaluated against four filamentous molds and four yeasts (Table 1). All the strains for antifungal assays were chosen since they are the most often strains identified as spoilage microorganisms of food products, specifically in the meat industry. The 4 filamentous molds were subcultured on Potato Dextrose Agar (PDA) at 25 °C, for 7 days, 2 times. The 4 yeasts were subcultured in Potato Dextrose Broth (PDB) at 25 °C, for 48 h, 2 to 3 times (Table 1).
(§3) The minimum inhibitory concentration (MIC) of the hydrolysate that induces inhibition of the microorganism tested was determined according to Froidevaux et al.. To quantify the growth inhibition, 96-well microplate assays were performed using Mueller-Hinton broth (MH, BD-Difco, Sparks, MD, USA). Samples were micro-diluted from the stock concentration of 40 mg/mL of proteins. The inoculum was pre-diluted in MH at a concentration of 5 × 10^5 CFU/mL. Then, the microplate was incubated 24 h at 37 °C for E. coli and at 30 °C for L. ivanovii. The molds and yeasts strains were, respectively tested at 2 × 10^4 and 1 × 10^5 conidia or yeast per mL [32]. The automated cell counter was used to determine the concentration. The microplates were incubated for 48 h at 25 °C for the molds and R. mucilaginosa, and at 35 °C for the other yeast strains. The MIC was the lowest concentration that inhibited completely the microorganism growth. The growth was measured by absorbance at 595 nm (Infinite® F200 PRO, Tecan Inc., Durham, NC, USA).
(§4) Then, they were, respectively incubated for 24 h at 37 °C or 30 °C and 48 h at 25 °C. The lowest concentration that inhibited microorganism growth is the MBC or MFC.
For FRLLGNVIVVV, the MFC worked out at 300 ± 0 µM and the MIC was 156 µM.

Take GHLDDLPGALSALSDLHAHKL: the MFC is 600 ± 0 µM and the minimum inhibitory concentration (MIC) turned out to be 600 ± 0 µM.

As to HVDPENFRLLGNVIVVVL, the MFC amounted to 300 ± 100 µM and the MIC was 100 ± 50 µM.

LAHKYH [LAHKYH]: the MFC was found to be 1300 ± 0 µM and the MIC turned out to be 1250 µM.

Substance NALAHKYH had an MFC of 300 ± 0 µM and an MIC of 300 ± 0 µM.

The data set is the same for the next values; noted with them: synthesized peptides, stock 2.5 mM in 10% (v/v) DMSO, highest tested concentration 1.25 mM, 48 h at 25 °C, mean ± SD.
Turning to HVDPEN, the minimal inhibitory concentration (MIC) result is listed as “not active”.

Another data set relates to Paecilomyces spp.
Assay: not given
The data set is classed as cell-based. As to conditions: 48 h. As for the experimental part:
as §1, §2, §3, §4
FRLLGNVIVVV gave an MFC of 600 ± 0 µM and an MIC of 625 µM.

Consider GHLDDLPGALSALSDLHAHKL, for which the MFC came to 1700 ± 700 µM and the MIC was determined as 1300 ± 0 µM.

For the substance HVDPENFRLLGNVIVVVL, the minimal inhibitory concentration (MIC) was more than 1300 ± 0 µM.

Take LAHKYH [LAHKYH]: the MFC was 1300 ± 0 µM and the MIC was 1250 µM.

NALAHKYH: the MFC turned out to be 300 ± 0 µM and the MIC is 200 ± 0 µM.

Staying with this data set, now noted: synthesized peptides, stock 2.5 mM in 10% (v/v) DMSO, highest tested concentration 1.25 mM, 48 h at 25 °C, mean ± SD.
For the substance HVDPEN, the MIC entry was “not active”.

System in the next data set: not listed separately
Kind of data set: RP-UPLC-MS/MS peptide profile, retention time. The data set is classed as physicochemical. The settings on record: Poroshell 120 EC-C18, water/acetonitrile with 0.1% formic acid, B 1–13% in 6 min, 35% at 25 min, 100% at 35 min, 23 °C, 500 µL/min, early elution read as high polarity, late as higher hydrophobicity. The source says: RP-UPLC coupled with MS/MS Q-TOF system was used to separate, identify, and characterize the peptide population, present in the porcine cruor hydrolysates. RP-UPLC tests were operated using a 1290 Infinity II UPLC (Agilent Technologies, Santa Clara, CA, USA), following the method proposed by. This chromatography instrument was composed of a binary pump (G7120A), a multisampler (G7167B), an in-line degasser and a variable wavelength detector (VWD G7114B) adjusted to 214 nm. […] Then, solvent B ramped to 100% until 35 min and was maintained for 10 min before returning to initial conditions. The cruor hydrolysate samples (2% protein (w/v)) were filtered through 0.22 µm PVDF filter and a volume of 0.25 µL was loaded onto a Poroshell 120 EC-C18 column (2.1 × 100 mm i.d., 2.7 micron, Agilent, Santa Clara, CA, USA) at a flow rate of 500 µL/min.
The determination of the accurate mass was performed using a hybrid ion mobility quadrupole time of flight mass spectrometer (6560 high-definition mass spectrometry (IM-Q-TOF), Agilent, Santa Clara, CA, USA). Calibration was completed using an ESI-L low concentration tuning mix (G1969-85000, Agilent Technologies, Santa Clara, CA, USA). Nitrogen was selected as the drying (13.0 L/min, 150 °C) and nebulizer gas (30 psi). The voltages were set at 3500 V for the capillary, 300 V for the nozzle and 400 V for the fragmentor. Positive mode at Extended Dynamic Range, 2 Ghz, 3200 m/z was used to record signals. Data acquisition and analysis were performed using the Agilent Mass Hunter Software package (LC/MS Data Acquisition, Version B.08.00 and Qualitative Analysis for IM-MS, Version B.07.00 Service Pack 2 with BioConfirm Software and BioConfirm, Version 10.0). A false discovery rate of 1% was used for extraction of biomolecules. […] Finally, these peptides were compared with bioactive peptides already known in the literature or analyzed with a predictive antimicrobial database.
In the case of “AAFQKVVAGVANA [porcine hemoglobin fragment β 129–141]”, the “Retention Time” value is 10.86 min.

For the substance “ANVSTVLTSKYR [porcine hemoglobin fragment α 130–141]”, the “Retention Time” value came out at 8.45 min.

With “CLLVTLAAHHPDDFNPS [porcine hemoglobin fragment α 104–120]”, the “Retention Time” value stood at 12.90 min.

Regarding “DPENFRLLGNVIVVVLA [porcine hemoglobin fragment β 100–116]”, the “Retention Time” value turned out to be 11.10 min.

On to “DQLHVDPENFRLLGNVIVVVLARRLGHDFNPNVQ [porcine hemoglobin fragment β 95–128]”, for which the “Retention Time” value was 24.79 min.

On to “ERMFLGF [porcine hemoglobin fragment α 30–36]”, for which the “Retention Time” value is 16.27 min.

For the substance “ERMFLGFPTTKTYFPHF [porcine hemoglobin fragment α 30–46]”, the “Retention Time” value stood at 18.24 min.

For “FESF [porcine hemoglobin fragment β 43–46]”, the “Retention Time” value is given as 9.60 min.

Regarding “FESFGDLSNAD [porcine hemoglobin fragment β 43–53]”, the “Retention Time” value is reported as 12.20 min.

For “FLGFPTTKTYFPHF [porcine hemoglobin fragment α 33–46]”, the “Retention Time” value came to 19.13 min.

For “FRLLGNVIVVVLARRLGHDFNPNVQ [porcine hemoglobin fragment β 104–128]”, the “Retention Time” value worked out at 21.87 min.

“GAEALERMFLGFPT [porcine hemoglobin fragment α 25–38]”: the “Retention Time” value was determined as 9.91 min.

In the case of “GLWGKVNVDEVGGEALGRL [porcine hemoglobin fragment β 14–32]”, the “Retention Time” value was determined as 16.84 min.

Turning to “HVDPENFRLLGNVIV [porcine hemoglobin fragment β 98–112]”, the “Retention Time” value came out at 17.16 min.

As for “HVDPENFRLLGNVIVVVLARRLGHDFNPNVQ [porcine hemoglobin fragment β 98–128, synthesized]”, the “Retention Time” value is reported as 23.26 min.

With “HVDPENFRLLGNVIVVVLARRLGHDFNPNVQA [porcine hemoglobin fragment β 98–129, synthesized]”, the “Retention Time” value is 23.33 min.

“KLLSHCL [porcine hemoglobin fragment α 99–105]”: the “Retention Time” value came out at 8.01 min.

For the substance “KLLSHCLL [porcine hemoglobin fragment α 99–106]”, the “Retention Time” value was 10.93 min.

Take “KLLSHCLLVTLAAHHPD [porcine hemoglobin fragment α 99–115]”: the “Retention Time” value was found to be 11.10 min.

As to “LANVSTVLTSKYR [porcine hemoglobin fragment α 129–141]”, the “Retention Time” value was 10.36 min.

For “LERMFLGF [porcine hemoglobin fragment α 29–36]”, the “Retention Time” value was 17.60 min.

“LGFPTTKTYFPHF [porcine hemoglobin fragment α 34–46]”: the “Retention Time” value worked out at 16.46 min.

Take “LLVVYPWTQRF [porcine hemoglobin fragment β 32–42]”: the “Retention Time” value came out at 19.00 min.

As to “LSDLHAHKLRVDPVNF [porcine hemoglobin fragment α 83–98]”, the “Retention Time” value was 10.23 min.

As for “LVVYPWTQRF [porcine hemoglobin fragment β 33–42]”, the “Retention Time” value is reported as 16.65 min.

In the case of “NLSHGSDQVKAHGQKVADALTKAVGHLDDLPGAL [porcine hemoglobin fragment α 47–80]”, the “Retention Time” value is 15.89 min.

As for “PNVQAAFQKVVAGVANALA [porcine hemoglobin fragment β 125–143]”, the “Retention Time” value was 11.10 min.

Regarding “PTTKTYFPHF [porcine hemoglobin fragment α 37–46]”, the “Retention Time” value is listed as 12.01 min.

Consider “RMFLGFPTTKTYFPHF [porcine hemoglobin fragment α 31–46]”, for which the “Retention Time” value is 17.99 min.

In the case of “SDLHAHKLRVDPVNF [porcine hemoglobin fragment α 84–98]”, the “Retention Time” value amounted to 9.34 min.

“SFGDLSNADAVMGNPKVK [porcine hemoglobin fragment β 45–62]”: the “Retention Time” value is listed as 12.90 min.

Regarding “SFSDGLKHLDNLKGTFA [porcine hemoglobin fragment β 71–87]”, the “Retention Time” value came to 12.90 min.

As to “SNADAVMGNPKVKAH [porcine hemoglobin fragment β 50–64]”, the “Retention Time” value is 9.91 min.

With “STVLTSKYR [porcine hemoglobin fragment α 133–141]”, the “Retention Time” value is reported as 6.67 min.

Regarding “TSKYR [known antimicrobial peptide, porcine hemoglobin fragment α 137–141]”, the “Retention Time” value was 1.64 min.

On to “TVLTSKYR [porcine hemoglobin fragment α 134–141]”, for which the “Retention Time” value turned out to be 6.54 min.

Turning to “VLSAADKANVKAAWGKVGGQAGAHGAEA [porcine hemoglobin fragment α 1–28]”, the “Retention Time” value is 9.15 min.

As for “VLSAADKANVKAAWGKVGGQAGAHGAEAL [porcine hemoglobin fragment α 1–29]”, the “Retention Time” value was found to be 10.86 min.

Regarding “VLSAADKANVKAAWGKVGGQAGAHGAEALERM [porcine hemoglobin fragment α 1–32]”, the “Retention Time” value turned out to be 12.14 min.

Consider “VLTSKYR [porcine hemoglobin fragment α 135–141]”, for which the “Retention Time” value is on record as 5.97 min.

Regarding “VTLAAHHPDDFNPSVHASLDKF [porcine hemoglobin fragment α 107–128]”, the “Retention Time” value was 11.37 min.
